Laboratory results: ChEMBL document CHEMBL5291721, “A preclinical secondary pharmacology resource illuminates target-adverse drug reaction associations of marketed drugs” (Nat Commun, 2023)

How the values were obtained:
[1] = molecular target: T1, Neuropeptide Y receptor type 1 (Homo sapiens, UniProt P25929)
T1 sequence (P25929 whole entry): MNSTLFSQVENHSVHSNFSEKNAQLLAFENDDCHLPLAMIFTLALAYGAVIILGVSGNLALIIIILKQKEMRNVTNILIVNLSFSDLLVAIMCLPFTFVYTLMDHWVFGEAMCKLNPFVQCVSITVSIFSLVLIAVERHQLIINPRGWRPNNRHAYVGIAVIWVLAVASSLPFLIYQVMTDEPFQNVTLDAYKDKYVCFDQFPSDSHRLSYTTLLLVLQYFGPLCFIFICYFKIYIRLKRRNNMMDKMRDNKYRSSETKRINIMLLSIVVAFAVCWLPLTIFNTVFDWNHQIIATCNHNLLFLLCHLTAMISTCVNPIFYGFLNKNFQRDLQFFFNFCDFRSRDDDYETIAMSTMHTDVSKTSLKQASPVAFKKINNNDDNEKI

Thromboxane A2 receptor = molecular target: T2, Thromboxane A2 receptor (Homo sapiens, UniProt P21731)
T2 sequence (P21731 whole entry): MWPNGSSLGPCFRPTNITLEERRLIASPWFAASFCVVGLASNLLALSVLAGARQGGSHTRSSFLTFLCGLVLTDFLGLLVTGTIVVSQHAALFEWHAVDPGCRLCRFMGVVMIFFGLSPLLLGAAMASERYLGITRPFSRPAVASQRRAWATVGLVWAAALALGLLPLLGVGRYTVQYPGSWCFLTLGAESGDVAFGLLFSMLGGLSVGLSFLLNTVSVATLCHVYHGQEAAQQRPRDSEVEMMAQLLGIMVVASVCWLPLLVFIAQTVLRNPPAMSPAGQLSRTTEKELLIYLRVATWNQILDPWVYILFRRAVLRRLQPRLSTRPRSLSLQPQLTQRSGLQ

Histamine H2 receptor = Histamine H2 receptor (Homo sapiens, UniProt P25021); type: functional, cell-based
Chain of Histamine H2 receptor (P25021 whole entry): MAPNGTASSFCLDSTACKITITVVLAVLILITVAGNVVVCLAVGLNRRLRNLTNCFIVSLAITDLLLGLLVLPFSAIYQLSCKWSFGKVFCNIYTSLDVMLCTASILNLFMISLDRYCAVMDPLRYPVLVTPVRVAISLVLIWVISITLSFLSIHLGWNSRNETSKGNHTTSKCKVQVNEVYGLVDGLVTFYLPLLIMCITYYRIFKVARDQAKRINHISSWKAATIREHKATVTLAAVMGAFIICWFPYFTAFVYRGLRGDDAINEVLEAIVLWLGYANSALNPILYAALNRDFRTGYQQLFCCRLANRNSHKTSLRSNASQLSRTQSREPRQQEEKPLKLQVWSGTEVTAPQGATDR

[2] = molecular target: cGMP-inhibited 3',5'-cyclic phosphodiesterase 3A (Homo sapiens, UniProt Q14432); type: functional
Chain of cGMP-inhibited 3',5'-cyclic phosphodiesterase 3A (Q14432 whole entry): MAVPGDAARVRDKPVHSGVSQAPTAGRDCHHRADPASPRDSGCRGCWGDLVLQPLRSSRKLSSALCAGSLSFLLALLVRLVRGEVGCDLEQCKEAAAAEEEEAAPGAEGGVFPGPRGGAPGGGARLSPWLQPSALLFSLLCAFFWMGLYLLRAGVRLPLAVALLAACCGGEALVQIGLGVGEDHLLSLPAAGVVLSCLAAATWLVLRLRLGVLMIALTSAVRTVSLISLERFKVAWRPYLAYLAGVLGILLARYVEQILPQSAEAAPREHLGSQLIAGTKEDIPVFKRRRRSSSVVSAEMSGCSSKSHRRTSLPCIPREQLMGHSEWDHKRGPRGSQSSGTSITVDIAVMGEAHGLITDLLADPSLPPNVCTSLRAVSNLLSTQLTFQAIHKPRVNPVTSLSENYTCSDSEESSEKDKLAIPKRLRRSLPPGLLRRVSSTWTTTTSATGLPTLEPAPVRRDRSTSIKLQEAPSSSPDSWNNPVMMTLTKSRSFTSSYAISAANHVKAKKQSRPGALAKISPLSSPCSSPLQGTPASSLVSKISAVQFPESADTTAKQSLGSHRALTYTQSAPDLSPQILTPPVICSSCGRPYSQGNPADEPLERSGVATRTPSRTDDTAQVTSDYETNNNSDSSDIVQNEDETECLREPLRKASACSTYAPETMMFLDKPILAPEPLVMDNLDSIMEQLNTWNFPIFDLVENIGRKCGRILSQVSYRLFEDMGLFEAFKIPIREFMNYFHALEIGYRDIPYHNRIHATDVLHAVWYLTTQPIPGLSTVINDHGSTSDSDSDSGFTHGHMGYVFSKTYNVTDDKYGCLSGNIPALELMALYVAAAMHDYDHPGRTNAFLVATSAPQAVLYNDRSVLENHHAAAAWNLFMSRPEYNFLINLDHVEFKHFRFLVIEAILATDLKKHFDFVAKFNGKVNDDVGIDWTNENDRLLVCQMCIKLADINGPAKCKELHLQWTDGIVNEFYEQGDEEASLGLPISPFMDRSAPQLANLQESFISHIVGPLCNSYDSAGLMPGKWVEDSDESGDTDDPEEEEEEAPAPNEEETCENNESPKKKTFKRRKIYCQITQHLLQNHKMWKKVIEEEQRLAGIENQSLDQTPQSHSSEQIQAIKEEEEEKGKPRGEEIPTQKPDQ

Progesterone receptor [3] = molecular target: T3, Progesterone receptor (Homo sapiens, UniProt P06401); type: functional
T3 sequence (P06401 whole entry): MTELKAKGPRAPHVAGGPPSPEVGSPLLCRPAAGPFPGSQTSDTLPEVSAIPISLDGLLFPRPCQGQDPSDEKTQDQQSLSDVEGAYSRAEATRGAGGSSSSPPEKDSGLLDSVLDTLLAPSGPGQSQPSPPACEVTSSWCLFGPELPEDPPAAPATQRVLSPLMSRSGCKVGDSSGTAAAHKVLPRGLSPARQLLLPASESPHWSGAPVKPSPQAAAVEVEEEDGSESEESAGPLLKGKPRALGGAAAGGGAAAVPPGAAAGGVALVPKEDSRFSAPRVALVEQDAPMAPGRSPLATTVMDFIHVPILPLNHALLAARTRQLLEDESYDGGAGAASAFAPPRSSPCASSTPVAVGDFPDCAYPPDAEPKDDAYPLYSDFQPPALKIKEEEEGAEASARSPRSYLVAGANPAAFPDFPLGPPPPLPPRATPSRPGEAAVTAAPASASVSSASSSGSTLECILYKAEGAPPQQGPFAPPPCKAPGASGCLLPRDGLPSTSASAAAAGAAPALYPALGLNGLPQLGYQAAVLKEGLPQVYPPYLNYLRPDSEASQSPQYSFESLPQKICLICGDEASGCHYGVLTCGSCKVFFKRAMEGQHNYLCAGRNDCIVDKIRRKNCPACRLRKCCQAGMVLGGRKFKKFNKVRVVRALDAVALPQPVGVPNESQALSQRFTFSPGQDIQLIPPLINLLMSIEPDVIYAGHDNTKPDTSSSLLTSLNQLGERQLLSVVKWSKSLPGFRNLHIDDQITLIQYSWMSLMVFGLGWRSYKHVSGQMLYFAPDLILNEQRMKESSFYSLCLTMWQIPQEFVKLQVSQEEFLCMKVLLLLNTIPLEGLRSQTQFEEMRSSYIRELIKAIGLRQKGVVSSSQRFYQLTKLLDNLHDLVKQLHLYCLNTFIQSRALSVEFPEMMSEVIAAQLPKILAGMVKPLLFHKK

Mu-type opioid receptor = Mu-type opioid receptor (Homo sapiens, UniProt P35372)
Chain of Mu-type opioid receptor (P35372 whole entry): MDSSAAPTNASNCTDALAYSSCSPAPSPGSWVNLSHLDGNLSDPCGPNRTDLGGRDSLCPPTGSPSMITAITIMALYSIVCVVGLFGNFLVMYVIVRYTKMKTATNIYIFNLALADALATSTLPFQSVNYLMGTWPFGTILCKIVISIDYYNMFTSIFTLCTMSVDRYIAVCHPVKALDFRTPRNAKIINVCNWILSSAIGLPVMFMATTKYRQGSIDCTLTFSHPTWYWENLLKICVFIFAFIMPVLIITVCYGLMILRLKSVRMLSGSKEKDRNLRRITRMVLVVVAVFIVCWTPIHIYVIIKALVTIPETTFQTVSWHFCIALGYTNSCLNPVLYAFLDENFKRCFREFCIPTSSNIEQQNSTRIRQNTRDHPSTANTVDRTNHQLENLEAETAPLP

Progesterone receptor [4] = molecular target: T3, Progesterone receptor
Note: assay procedure not described here.

| SMILES | AC50 [1] [µM] | AC50 (Thromboxane A2 receptor) [µM] | AC50 (Histamine H2 receptor) [µM] | AC50 [2] [µM] | AC50 (Progesterone receptor [3]) [µM] | AC50 (Mu-type opioid receptor) [µM] | AC50 (Progesterone receptor [4]) [µM] |
| --- | --- | --- | --- | --- | --- | --- | --- |
| CCOC(=O)[C@H](CCc1ccccc1)N[C@@H](C)C(=O)N1[C@H](C(=O)O)C[C@@H]2CCC[C@@H]21 | > 30 | > 30 | > 10 |  |  |  |  |
| CC(=O)Nc1ccc(O)cc1 [ACETAMINOPHEN] |  |  |  | > 30 | > 30 | > 30 | > 30 |
| CCCSc1ccc2nc(NC(=O)OC)[nH]c2c1 [ALBENDAZOLE] | > 10 | > 30 | > 10 |  | > 10 |  |  |
| CC[C@H]1OC(=O)[C@H](C)[C@@H](O[C@H]2C[C@@](C)(OC)[C@@H](O)[C@H](C)O2)[C@H](C)[C@@H](O[C@@H]2O[C@H](C)C[C@H](N(C)C)[C@H]2O)[C@](C)(O)C[C@@H](C)CN(C)[C@H](C)[C@@H](O)[C@]1(C)O [AZITHROMYCIN] | > 30 | > 30 | > 10 | > 30 |  | > 30 | > 30 |
| NCC(CC(=O)O)c1ccc(Cl)cc1 (stereo unspecified) [BACLOFEN] | > 30 | > 30 | > 10 | > 30 | > 30 | > 30 | > 30 |
| CCc1oc2ccccc2c1C(=O)c1cc(I)c(O)c(I)c1 [BENZIODARONE] |  |  |  | > 30 |  | 9.64 | 4.27 |
| CC(C)C[C@H]1C(=O)N2CCC[C@H]2[C@]2(O)O[C@](NC(=O)[C@@H]3C=C4c5cccc6[nH]c(Br)c(c56)C[C@H]4N(C)C3)(C(C)C)C(=O)N12 [BROMOCRIPTINE] | > 30 | > 30 | 2.13 | > 30 | > 30 | 3.45 | > 30 |
| Cc1ccc(-c2cc(C(F)(F)F)nn2-c2ccc(S(N)(=O)=O)cc2)cc1 [CELECOXIB] | > 10 | > 10 | > 10 |  |  |  |  |
| CC1=C(C(=O)O)N2C(=O)[C@@H](NC(=O)[C@H](N)c3ccccc3)[C@H]2SC1 [CEPHALEXIN ANHYDROUS] | > 30 | > 30 | > 30 |  |  |  |  |
| COCc1c(C(C)C)nc(C(C)C)c(/C=C/[C@@H](O)C[C@@H](O)CC(=O)O)c1-c1ccc(F)cc1 [CERIVASTATIN] |  |  |  | > 30 |  | > 30 | > 30 |
| CN(C)CCC(c1ccc(Cl)cc1)c1ccccn1 (stereo unspecified) [CHLORPHENIRAMINE] | > 30 | > 30 | > 10 |  |  |  |  |
| C[N+](C)(C)CCO [CHOLINE] |  |  |  | > 30 |  | > 30 | > 30 |
| CN(C)/N=N/c1[nH]cnc1C(N)=O [DACARBAZINE] | > 10 | > 10 | > 10 |  | > 10 |  |  |
| C[C@]12CC[C@@H]3c4ccc(O)cc4CC[C@H]3[C@@H]1C[C@@H](O)[C@@H]2O [ESTRIOL] |  |  |  | > 30 |  | > 30 | 3.3 |
| CCC1=C(C)CN(C(=O)NCCc2ccc(S(=O)(=O)NC(=O)N[C@H]3CC[C@H](C)CC3)cc2)C1=O [GLIMEPIRIDE] |  |  |  | > 30 |  | > 30 | > 30 |
| C[N+]1(C)CCC(OC(=O)C(O)(c2ccccc2)C2CCCC2)C1 (stereo unspecified) [GLYCOPYRRONIUM BROMIDE] |  | > 30 |  | > 30 | > 10 |  | > 30 |
| C[C@]12CCC(=O)C=C1CC[C@@H]1[C@@H]2[C@@H](O)C[C@@]2(C)[C@H]1CC[C@]2(O)C(=O)CO [HYDROCORTISONE] | > 30 | > 30 | > 10 |  |  |  |  |

| SMILES | AC50 [1] [µM] | AC50 (Thromboxane A2 receptor) [µM] | AC50 (Histamine H2 receptor) [µM] | AC50 [2] [µM] | AC50 (Progesterone receptor [3]) [µM] | AC50 (Mu-type opioid receptor) [µM] | AC50 (Progesterone receptor [4]) [µM] |
| --- | --- | --- | --- | --- | --- | --- | --- |
| O=P1(NCCCl)OCCCN1CCCl (stereo unspecified) [IFOSFAMIDE] | > 30 | > 30 | > 30 |  | > 30 |  |  |
| CCC(C)n1ncn(-c2ccc(N3CCN(c4ccc(OCC5COC(Cn6cncn6)(c6ccc(Cl)cc6Cl)O5)cc4)CC3)cc2)c1=O (stereo unspecified) [ITRACONAZOLE] | > 30 | > 30 | > 10 |  | > 30 |  |  |
| c1ccc([C@H]2CN3CCSC3=N2)cc1 [LEVAMISOLE] |  | > 30 | > 30 |  | > 30 |  |  |
| Cc1cccc(Nc2ccccc2C(=O)O)c1C [MEFENAMIC ACID] | > 10 | > 10 | > 10 | > 30 | > 10 | > 30 | > 30 |
| C[C@@H](O)[C@H]1C(=O)N2C(C(=O)O)=C(S[C@@H]3CN[C@H](C(=O)N(C)C)C3)[C@H](C)[C@H]12 [MEROPENEM] | > 10 | > 10 | > 10 |  | > 300 |  |  |
| Clc1ccc(C(c2ccccc2Cl)C(Cl)Cl)cc1 (stereo unspecified) [MITOTANE] | > 10 | > 10 | > 10 |  |  |  |  |
| CC(C)(S)[C@@H](N)C(=O)O [PENICILLAMINE] |  |  |  | > 30 |  | > 30 | > 30 |
| CCCN1C[C@H](CSC)C[C@@H]2c3cccc4[nH]cc(c34)C[C@H]21 [PERGOLIDE] | > 30 | > 30 | 0.95 |  | > 30 |  |  |
| C1CCC(C(CC2CCCCN2)C2CCCCC2)CC1 (stereo unspecified) [PERHEXILINE] |  |  |  |  | > 30 |  |  |
| COc1cc(NC(C)CCCN)c2ncccc2c1 (stereo unspecified) [PRIMAQUINE] | > 30 | > 30 |  | 22.5 |  |  | 15.4 |
| CS(=O)(=O)c1ccc(C2=C(c3ccccc3)C(=O)OC2)cc1 [ROFECOXIB] | > 30 | > 30 | > 30 | > 30 |  | > 30 | > 30 |
| CO[C@H]1C[C@@H]2CC[C@@H](C)[C@@](O)(O2)C(=O)C(=O)N2CCCC[C@H]2C(=O)O[C@H]([C@H](C)C[C@@H]2CC[C@@H](O)[C@H](OC)C2)CC(=O)[C@H](C)/C=C(\C)[C@@H](O)[C@@H](OC)C(=O)[C@H](C)C[C@H](C)/C=C/C=C/C=C/1C [SIROLIMUS] | > 30 | > 30 | > 10 | > 30 |  | > 30 | > 30 |
| Cc1cn([C@H]2C=C[C@@H](CO)O2)c(=O)[nH]c1=O [STAVUDINE] | > 30 | > 30 | > 10 | > 30 |  | > 30 | > 30 |
| N[C@@H]1[C@H]2CN(c3nc4c(cc3F)c(=O)c(C(=O)O)cn4-c3ccc(F)cc3F)C[C@@H]12 [TROVAFLOXACIN] |  |  |  |  | > 30 |  |  |
| CCCCCCOc1nsnc1C1=CCCN(C)C1 [XANOMELINE] |  |  |  | > 30 |  | > 30 | > 30 |
| Cc1cn([C@H]2C[C@H](N=[N+]=[N-])[C@@H](CO)O2)c(=O)[nH]c1=O [ZIDOVUDINE] | > 30 | > 30 | > 10 | > 30 |  | > 30 | > 30 |
